In publication PMC9503459, “Antifungal Activity, Structural Stability, and Immunomodulatory Effects on Human Immune Cells of Defensin from the Lentil Lens culinaris” (Membranes, 2022):
No end group written: not given here.

Tested on: polarized Caco-2 monolayer
Assay: Cytokine response by multiplex xMAP, Caco-2
Type: cell-based, human
Conditions: 2 µM, 24 h
Procedure: Colorectal adenocarcinoma Caco-2 cell line (ATCC HTB-37) was cultured in complete DMEM/F12 (1:1) medium containing 10% fetal bovine serum (FBS, Gibco) and 1X antibiotic-antimycotic solution (1XAAS, Invitrogen, Waltham, MA, USA). The acute monocytic leukemia THP-1 line (ATCC TIB-202) was cultured in complete RPMI-1640 medium, containing 10% FBS, 1XAAS, and […]. THP-1 cells were differentiated into pro-inflammatory macrophages (Mφ1) with phorbol 12-myristate 13-acetate (Sigma-Aldrich) for 24 h and subsequently polarized with lipopolysaccharide from E. coli (Sigma-Aldrich) and rhIFN-γ (Sigma-Aldrich) for another 48 h according to previously reported protocol. All cells were cultured in a humidified CO2 incubator (5% CO2, 37 °C). Primary peripheral blood mononuclear cells (PBMCs) collected from a healthy donor were purchased from American Type Culture Collection (ATCC PCS-800-011). CD4^+ T-helper and CD8^+ T cytotoxic cells were isolated from PBMCs by magnetic separation with mouse anti-human CD4-PE (clone 13B8.2, Beckman Coulter Diagnostics, Pasadena, CA, USA) and CD8-PE (clone REA734, Miltenyi Biotec, Bergisch Gladbach, Germany), Anti-PE MicroBeads (Miltenyi Biotec), and LS Separation Columns (Miltenyi Biotec). Isolated CD4^+ and CD8^+ cells were expanded separately with Dynabeads™ Human T-Expander CD3/CD28 (Gibco, Waltham, MA, USA) in RPMI-1640 supplemented with 10% FBS, 1XAAS and 100 U/mL rh-IL-2 (Gibco). Regulatory CD4^+ FoxP3^+ T cells (Tregs) were isolated from PBMCs by magnetic separation with CD4^+CD25^+ Regulatory T Cell Isolation Kit, human (Miltenyi Biotec). Primary CD14^+ blood monocytes were isolated from PBMCs by adherence according to standard technique. Monocyte-derived mature dendritic cells (moDCs) were obtained from CD14^+ blood monocytes according to the previously reported protocol. Briefly, blood monocytes were incubated in complete RPMI-1640 medium, containing 10% FBS, 1XAAS, 800 U/mL rhGM-CSF (Sci-Store, Russia, Moscow) and 500 U/mL rhIL-4 (Sci-Store) for 3 days. Fresh complete RPMI-1640 medium with rhGM-CSF and rhIL-4 was added to the culture on day 3. On day 5, fresh complete RPMI-1640 containing 100 U/mL rhTNF-α (Sigma) as well as 800 U/mL rhGM-CSF and 500 U/mL rhIL-4 was added and the culture was incubated for another 4 days until full maturation.
Caco-2 cells were seeded into the wells of a 48-well plate, coated with 0.1% bovine collagen (Sigma-Aldrich) for 24 h, 3 weeks before the experiment with complete DMEM/F12 (1:1) medium renewal every 2–3 days. Monocytes, moDCs, CD4^+ T-helper and CD8^+ T cytotoxic cells, Mφ1, and Regulatory CD4^+ FoxP3^+ T cells were seeded into the wells of 48-well plates in the complete RPMI-1640 medium supplemented with 10% Human AB serum (HABS, Capricorn Scientific, Ebsdorfergrund, Germany) and 1XAAS 24 h prior to the experiment; medium in Caco-2-containing wells was also replaced with the same medium. After 24 h, half of the medium in each well was replaced by fresh complete RPMI-1640 medium with 10% HABS, supplemented with 4 µM of Lc-def for the sample wells or fresh medium alone for the control wells. Cell cultures were kept in CO2-incubator (5% CO2, 37 °C) for another 24 h. Culture supernatants were collected 24 h later and stored at −70 °C degrees less than one month prior to the analytes assessment. […]

Lc-def: defensin from lentil Lens culinaris seeds (UniProt:B3F051), recombinant, overexpressed in Escherichia coli (KTCENLSDSFKGPCIPDGNCNKHCKEKEHLLSGRCRDDFRCWCTRNC; disulfide (positions not given here); ends not checked; also: disulfide bonds present, pairing not given here; UniProt B3F051 28-74, looked up)
EGF (Caco-2 monolayer): <1.95↓ pg/ml
Eotaxin (Caco-2 monolayer): <3.23↓ pg/ml
FGF-2 (Caco-2 monolayer): 19.54 pg/mL
FLT-3L (Caco-2 monolayer): <0.45↓ pg/ml
Fractalkine (Caco-2 monolayer): <23.19↓ pg/ml
G-CSF (Caco-2 monolayer): <2.57↓ pg/ml
GM-CSF (Caco-2 monolayer): <1.36↓ pg/ml
GROa (Caco-2 monolayer): 21.87 pg/mL
IFNa2 (Caco-2 monolayer): <4.43↓ pg/ml
IFNg (Caco-2 monolayer): <1.99↓ pg/ml
IL-1RA (Caco-2 monolayer): <0.83↓ pg/ml
IL-1a (Caco-2 monolayer): <3.64↓ pg/ml
IL-1b (Caco-2 monolayer): <18.72↓ pg/ml
IL-2 (Caco-2 monolayer): <0.31↓ pg/ml
IL-3 (Caco-2 monolayer): <0.48↓ pg/ml
IL-4 (Caco-2 monolayer): 11.31 pg/mL
IL-5 (Caco-2 monolayer): <0.24↓ pg/ml
IL-6 (Caco-2 monolayer): 1.45 pg/mL
IL-7 (Caco-2 monolayer): <0.33↓ pg/ml
IL-8 (Caco-2 monolayer): 7.94 pg/mL
IL-9 (Caco-2 monolayer): 11.08 pg/mL
IL-10 (Caco-2 monolayer): <0.68↓ pg/ml
IL-12 (p40) (Caco-2 monolayer): <3.02↓ pg/ml
IL-12 (p70) (Caco-2 monolayer): <1.48↓ pg/ml
IL-13 (Caco-2 monolayer): 42.42 pg/mL
IL-15 (Caco-2 monolayer): <1.45↓ pg/ml
IL-17A (Caco-2 monolayer): <1.55↓ pg/ml
IL-17E/IL-25 (Caco-2 monolayer): <20.59↓ pg/ml
IL-17F (Caco-2 monolayer): <16.96↓ pg/ml
IL-18 (Caco-2 monolayer): <0.35↓ pg/ml
IL-22 (Caco-2 monolayer): 51.96 pg/mL
IL-27 (Caco-2 monolayer): <8.55↓ pg/ml
IP-10 (Caco-2 monolayer): 29.22 pg/mL
M-GSF (Caco-2 monolayer): <23.75↓ pg/ml
MCP-1 (Caco-2 monolayer): <1.52↓ pg/ml
MCP-3 (Caco-2 monolayer): 12.67 pg/mL
MDC (Caco-2 monolayer): <0.35↓ pg/ml
MIG (Caco-2 monolayer): <3.43↓ pg/ml
MIP-1a (Caco-2 monolayer): <1.76↓ pg/ml
MIP-1b (Caco-2 monolayer): <1.92↓ pg/ml
PDGF-AA (Caco-2 monolayer): 541.87 pg/mL
PDGF-AB/BB (Caco-2 monolayer): 188.6 pg/mL
RANTES (Caco-2 monolayer): <0.67↓ pg/ml
TGF-a (Caco-2 monolayer): <0.66↓ pg/ml
TNFa (Caco-2 monolayer): <3.91↓ pg/ml
TNFb (Caco-2 monolayer): 21.23 pg/mL
VEGFa (Caco-2 monolayer): 2653 pg/mL
sCD40L (Caco-2 monolayer): <6.66↓ pg/ml
effect on cytokine production (polarized Caco-2 monolayer): no effect
